This experiment concerns the target T1, human PAH with the R408W mutation (Homo sapiens, UniProt P00439, R408W).
T1 construct: expressed in transfected cells
T1 sequence (P00439 1-452 R408W): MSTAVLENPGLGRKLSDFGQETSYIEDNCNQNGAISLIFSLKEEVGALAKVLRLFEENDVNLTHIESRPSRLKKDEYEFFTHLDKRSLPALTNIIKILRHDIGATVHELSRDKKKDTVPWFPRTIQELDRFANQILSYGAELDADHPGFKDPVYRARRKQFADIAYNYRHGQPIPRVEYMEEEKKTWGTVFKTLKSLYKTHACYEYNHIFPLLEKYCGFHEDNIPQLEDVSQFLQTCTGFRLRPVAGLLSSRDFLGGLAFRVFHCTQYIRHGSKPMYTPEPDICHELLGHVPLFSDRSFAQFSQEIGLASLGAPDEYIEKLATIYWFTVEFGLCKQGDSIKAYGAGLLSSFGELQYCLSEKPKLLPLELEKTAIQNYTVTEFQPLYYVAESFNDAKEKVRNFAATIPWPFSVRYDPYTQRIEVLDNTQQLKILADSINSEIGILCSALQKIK
As to the kind of experiment: Cell Based Phenylalanine Flux Assay. The arrangement: scale not given here.

Setting [1] is: A375 cells expressing human R408W PAH, 24 hrs compound incubation, 13C-Tyrosine by LC-MS, average where tested multiple times, read-out: AC50.
Where [2] appears, read: A375 R408W cells, 24 hrs with compound, then 20 μM sepiapterin and 800 μM 13C9,15N-Phenylalanine for 4 hours, 13C-Tyrosine by LC-MS, average where tested multiple times, read-out: AC50.

SMILES strings stand for the structures. Counter-ions that a name gives are not always drawn. Like-named read-outs stand apart in the source and are kept apart here.

As for `O=C(c1nnc(-c2cccnc2)o1)N1CCc2[nH]cnc2[C@@H]1c1ncc2ccccc2n1` [Example 178, (R)-(5-(pyridin-3-yl)-1,3,4-oxadiazol-2-yl)(4-(quinazolin-2-yl)-6,7-dihydro-1H-imidazo[4,5-c]pyridin-5(4H)-yl)methanone], the half-maximal activity concentration (AC50) under setting [1] fell in the range of 1000 to 5000 nM.
As for `O=C(CC1CC1)N1CCc2[nH]cnc2C1c1ccc2ccccc2n1` (stereo in doubt) [Example 42, (S)-2-cyclopropyl-1-(4-(quinolin-2-yl)-6,7-dihydro-1H-imidazo[4,5-c]pyridin-5(4H)-yl)ethanone], the concentration at half-maximal activity (AC50) under setting [1] fell in the range of 1000 to 5000 nM.
On the same count and under the same terms, then `O=C(c1cnn2ccccc12)N1CCc2[nH]cnc2[C@H]1c1cc2ccccc2cn1` [Example 431, (R)-(4-(isoquinolin-3-yl)-6,7-dihydro-1H-imidazo[4,5-c]pyridin-5(4H)-yl)(pyrazolo[1,5-a]pyridin-3-yl)methanone], with less than 500 nM; and `Cc1ncoc1C(=O)N1CC2(CC2)c2[nH]cnc2[C@@H]1c1cc2ccccc2cn1` [Example 492, (S)-(4′-(isoquinolin-3-yl)spiro[cyclopropane-1,7′-imidazo[4,5-c]pyridin]-5′(1′H,4′H,6′H)-yl)(4-methyloxazol-5-yl)methanone], with more than 5000 nM.
As to `O=C(Cc1nc(C(F)(F)F)cs1)N1CCc2[nH]cnc2C1c1cn2ccccc2n1` (stereo not shown), the half-maximal activity concentration (AC50) under setting [2] is more than 5000 nM.
As for `COc1ccc2c(C(=O)N3CCc4[nH]cnc4[C@H]3c3cc4ccccc4cn3)cnn2c1` [Example 460, (R)-(4-(isoquinolin-3-yl)-6,7-dihydro-1H-imidazo[4,5-c]pyridin-5(4H)-yl)(6-methoxypyrazolo[1,5-a]pyridin-3-yl)methanone], under setting [1], the AC50 is less than 500 nM.
Take `CC(C)(O)c1nc(C(F)F)c(C(=O)N2CCc3[nH]cnc3C2c2ccc3ccccc3n2)o1` (stereo in doubt) [Example 92, (S)-(4-(difluoromethyl)-2-(2-hydroxypropan-2-yl)oxazol-5-yl)(4-(quinolin-2-yl)-6,7-dihydro-1H-imidazo[4,5-c]pyridin-5(4H)-yl)methanone]: the AC50 under setting [1] was 1000 to 5000 nM.
For the compound `Cc1nc(C2CCN2)oc1C(=O)N1CCc2[nH]cnc2C1c1ccc2ccccc2n1` (stereo not shown), the AC50 under setting [2] is more than 5000 nM.
On to `Cc1nc(C2CC2)oc1C(=O)N1CCc2[nH]cnc2C1c1ccc2ccccc2n1` (stereo in doubt) [Example 35, (R)-(2-cyclopropyl-4-methyloxazol-5-yl)(4-(quinolin-2-yl)-6,7-dihydro-1H-imidazo[4,5-c]pyridin-5(4H)-yl)methanone], for which the half-maximal activity concentration (AC50) under setting [1] was less than 500 nM.
For the compound `O=C(c1ocnc1C(F)(F)F)N1CCc2[nH]cnc2C1c1ccc2ccccc2n1` (stereo in doubt) [Example 37, (R)-(4-(quinolin-2-yl)-6,7-dihydro-1H-imidazo[4,5-c]pyridin-5(4H)-yl)(4-(trifluoromethyl)oxazol-5-yl)methanone], the concentration at half-maximal activity (AC50) under setting [1] is less than 500 nM.
For the compound `O=C(c1ocnc1C(F)F)N1CCc2nc[nH]c2C1c1ccc2ccccc2n1` (stereo in doubt) [Example 51, (R)-(4-(difluoromethyl)oxazol-5-yl)(4-(quinolin-2-yl)-6,7-dihydro-3H-imidazo[4,5-c]pyridin-5(4H)-yl)methanone], under setting [1], the AC50 was less than 500 nM.
Take `O=C(c1nnc(NC2CC2)o1)N1CCc2[nH]cnc2C1c1ccc2ccccc2n1` (stereo not shown): the AC50 under setting [2] is 1000 to 5000 nM.
Still for that read-out and setting: then `O=C(c1nnc(CCN2CCOCC2)o1)N1CCc2[nH]cnc2C1c1ccc2ccccc2n1` (stereo not shown), with more than 5000 nM; and `CC(C)(O)c1nnc(C(=O)N2CCc3[nH]cnc3C2c2cc3ccccc3nn2)o1` (stereo not shown), with 1000 to 5000 nM.
Consider `O=C(c1nnc(-c2ccc(F)cc2)o1)N1CCc2[nH]cnc2[C@@H]1c1ccc2ccccc2n1` [Example 12], for which the half-maximal activity concentration (AC50) under setting [1] is more than 5000 nM.
Still for that read-out and setting: then `CC(F)(F)c1ncc(C(=O)N2CCc3[nH]cnc3[C@H]2c2cc3ccccc3cn2)s1` [Example 376, (R)-(2-(1,1-difluoroethyl)thiazol-5-yl)(4-(isoquinolin-3-yl)-6,7-dihydro-1H-imidazo[4,5-c]pyridin-5(4H)-yl)methanone hydrochloride], with less than 500 nM.
Same read-out and setting: then `O=C(c1cnc(-c2cnn(CC(F)(F)F)c2)o1)N1CCc2[nH]cnc2[C@@H]1c1cc2ccccc2cn1` [Example 304, (S)-(4-(isoquinolin-3-yl)-6,7-dihydro-1H-imidazo[4,5-c]pyridin-5(4H)-yl)(2-(1-(2,2,2-trifluoroethyl)-1H-pyrazol-4-yl)oxazol-5-yl)methanone], with more than 5000 nM.
Consider `COCCNc1nnc(C(=O)N2CC(C)c3[nH]cnc3C2c2cc3ccccc3cn2)o1` [(4S, 7R) diastereomer of 5-[4-(isoquinolin-3-yl)-7-methyl-1H], for which the AC50 result (A375 R408W cells, 24 hrs with compound, then 20 μM sepiapterin and 800 μM 13C9,15N-Phenylalanine for 4 hours, 13C-Tyrosine by LC-MS, average where tested multiple times) is reported as “E, E”.
`Cn1ncc(C(=O)N2CCc3[nH]cnc3C2c2ccc3ccccc3n2)c1C(F)F` (stereo not shown) had a concentration at half-maximal activity (AC50) of 1000 to 5000 nM.
With `CC(C)(F)c1nnc(C(=O)N2CCc3[nH]cnc3[C@H]2c2cc3ccccc3cn2)o1` [Example 419, (R)-(5-(2-fluoropropan-2-yl)-1,3,4-oxadiazol-2-yl)(4-(isoquinolin-3-yl)-6,7-dihydro-1H-imidazo[4,5-c]pyridin-5(4H)-yl)methanone], under setting [1], the concentration at half-maximal activity (AC50) is less than 500 nM.
On the same count and under the same terms, next, `COCc1ncc(C(=O)N2CCc3[nH]cnc3[C@H]2c2cc3ccccc3cn2)o1` [Example 394, (R)-(4-(isoquinolin-3-yl)-6,7-dihydro-1H-imidazo[4,5-c]pyridin-5(4H)-yl)(2-(methoxymethyl)oxazol-5-yl)methanone]: 500 to 1000 nM.
Consider `O=C(c1nnc(-c2ccc(C(F)(F)F)cn2)o1)N1CCc2[nH]cnc2C1c1ccc2ccccc2n1` (stereo not shown), for which the AC50 under setting [2] lay within 1000 to 5000 nM.
In the case of `O=C(c1cnn2cc(N3CCOCC3)c(Cl)cc12)N1CCc2[nH]cnc2[C@H]1c1cc2ccccc2cn1` [Example 463, (R)-(5-chloro-6-morpholinopyrazolo[1,5-a]pyridin-3-yl)(4-(isoquinolin-3-yl)-6,7-dihydro-1H-imidazo[4,5-c]pyridin-5(4H)-yl)methanone], the AC50 under setting [1] is less than 500 nM.
On the same count and under the same terms, next, `COc1ccc(-c2nnc(C(=O)N3CCc4[nH]cnc4[C@H]3c3ncc4ccccc4n3)o2)nc1` [Example 181, (S)-(5-(5-methoxypyridin-2-yl)-1,3,4-oxadiazol-2-yl)(4-(quinazolin-2-yl)-6,7-dihydro-1H-imidazo[4,5-c]pyridin-5(4H)-yl)methanone]: less than 500 nM; `O=C(c1nnc(-c2ccc(F)cn2)o1)N1CCc2[nH]cnc2[C@H]1c1cc2ccccc2cn1` [Example 340, (R)-(5-(5-fluoropyridin-2-yl)-1,3,4-oxadiazol-2-yl)(4-(isoquinolin-3-yl)-6,7-dihydro-1H-imidazo[4,5-c]pyridin-5(4H)-yl)methanone]: less than 500 nM; `O=C(c1ocnc1-c1ccccc1)N1CCc2[nH]cnc2[C@H]1c1cc2ccccc2cn1` [Example 348, (R)-(4-(isoquinolin-3-yl)-6,7-dihydro-1H-imidazo[4,5-c]pyridin-5(4H)-yl)(4-phenyloxazol-5-yl)methanone]: less than 500 nM.
Take `O=C(c1nnc(COC(F)(F)F)o1)N1CCc2[nH]cnc2C1c1ccc2ccccc2n1` (stereo not shown): under setting [2], the concentration at half-maximal activity (AC50) is more than 5000 nM.
For `Cn1nccc1-c1nnc(C(=O)N2CCc3[nH]cnc3[C@H]2c2cc3ccccc3cn2)o1` [Example 447, (R)-(4-(isoquinolin-3-yl)-6,7-dihydro-1H-imidazo[4,5-c]pyridin-5(4H)-yl)(5-(1-methyl-1H-pyrazol-5-yl)-1,3,4-oxadiazol-2-yl)methanone], under setting [1], the AC50 is less than 500 nM.

The values are drawn from US20250262201A1, “COMPOUNDS AND METHODS USEFUL FOR STABILIZING PHENYLALANINE HYDROXYLASE MUTATIONS” (Agios Pharmaceuticals, Inc., priority 2022, published 2025).
